According to patent US11214803B2, “Modulators of YAP1 expression” (Ionis Pharmaceuticals, Inc., priority 2019, dated 2022):
Strand notation (5' to 3'): a small letter for the sugar, then the base; units joined by * are phosphorothioate-linked, units joined directly phosphodiester-linked; [ ] holds rarer units or linkages, { } end groups; capitals alone tell only the bases. k = constrained ethyl (cEt); [5mC] = 5-methylcytosine; d = 2'-deoxy (DNA)

Tested on: Yap1 mRNA
Assay: Antisense inhibition of human Yap1 in A-431 cells by cEt gapmers, single dose (Example 3, RTS36584)
Assay type: cell-based
Protocol: Modified oligonucleotides were designed to target a Yap1 nucleic acid and were tested for their effect on Yap1 mRNA level in vitro. The modified oligonucleotides were tested in a series of experiments that had similar culture conditions. Cultured A-431 cells at a density of 5,000 cells per well were treated using free uptake with 2,000 nM of modified oligonucleotide. After a treatment period of approximately 48 hours, RNA was isolated from the cells and Yap1 mRNA levels were measured by quantitative real-time RTPCR. Human primer probe set RTS36584 (forward sequence […], designated herein as SEQ ID NO.: 14; reverse sequence […], designated herein as SEQ ID NO.: 15; probe sequence […], designated herein as SEQ ID NO.: 16) was used to measure mRNA levels. Yap1 mRNA levels were normalized to total RNA content, as measured by RIBOGREEN®. Results are presented in the tables below as percent control of the amount of Yap1 mRNA relative to untreated control cells (% UTC). The modified oligonucleotides with percent control values marked with an asterisk (*) target the amplicon region of the primer probe set. Additional assays may be used to measure the potency and efficacy of the modified oligonucleotides targeting the amplicon region.
The newly designed modified oligonucleotides in the Tables below were designed as 3-10-3 cEt gapmers. The gapmers are 16 nucleosides in length, wherein the central gap segment comprises of ten 2′-deoxynucleosides and is flanked by wing segments on the 5′ direction and the 3′ direction comprising three nucleosides each. Each nucleoside in the 5′ wing segment and each nucleoside in the 3′ wing segment has a cEt sugar modification. The internucleoside linkages throughout each gapmer are phosphorothioate (P═S) linkages. All cytosine residues throughout each gapmer are 5-methylcytosines.
“Start site” indicates the 5′-most nucleoside to which the gapmer is targeted in the human gene sequence. “Stop site” indicates the 3′-most nucleoside to which the gapmer is targeted human gene sequence. […] Activity of the modified oligonucleotide may be defined in a different experiment.

[1] = Table 27, Yap1 mRNA by 3-10-3 cEt gapmers targeting SEQ ID NO.: 1, and 2, percent of untreated control
[2] = Table 10, A-431 cells, 5,000 cells per well, free uptake, 2,000 nM oligonucleotide, approx. 48 hours, primer probe set RTS36584, Yap1 mRNA normalized to RIBOGREEN, percent of untreated control
[3] = Table 11, A-431 cells, 5,000 cells per well, free uptake, 2,000 nM oligonucleotide, approx. 48 hours, primer probe set RTS36584, Yap1 mRNA normalized to RIBOGREEN, percent of untreated control
[4] = Table 12, A-431 cells, 5,000 cells per well, free uptake, 2,000 nM modified oligonucleotide, approx. 48 hours, RTS36584, normalized to RIBOGREEN, Yap1 mRNA relative to untreated control cells
[5] = Table 29, Yap1 mRNA as percent of untreated control, 3-10-3 cEt gapmers targeting SEQ ID NO.: 1, and 2
[6] = Table 26, Yap1 mRNA by 3-10-3 cEt gapmers targeting SEQ ID NO.: 1, and 2, percent of untreated control

1076333 (antisense k[5mC]*kT*kA*dT*dA*dA*dG*dG*dA*dA*dT*dG*dG*k[5mC]*kA*kA) [compound 1076333]
YAP1 (% UTC) [1]: 97 % UTC

1074957 (antisense kA*kA*k[5mC]*d[5mC]*d[5mC]*dG*dG*dG*dT*dT*dT*dT*dT*kG*kT*k[5mC]) [compound 1074957]
YAP1 (% UTC) [1]: 102 % UTC

958385 (antisense kG*k[5mC]*kG*d[5mC]*dG*d[5mC]*dG*d[5mC]*dA*dT*dT*dG*dT*kG*k[5mC]*kA) [Compound 958385]
YAP1 (% UTC) (Table 8, A-431 cells, 5,000 cells per well, free uptake, 2,000 nM, approximately 48 hours, RTS36584, normalized to RIBOGREEN, Yap1 mRNA relative to untreated control cells): 115 % UTC

958782 (antisense kA*kT*kG*dG*dT*d[5mC]*dT*d[5mC]*d[5mC]*d[5mC]*dA*dG*dT*k[5mC]*kA*k[5mC]) [Compound 958782]
YAP1 (% UTC) [2]: 20 % UTC

958568 (kT*kA*kT*dG*dA*dG*dT*dG*dA*dT*d[5mC]*dA*dA*k[5mC]*k[5mC]*kT; antisense) [Compound 958568]
YAP1 (% UTC) [3]: 5 % UTC

958529 (k[5mC]*kA*kA*dG*dT*d[5mC]*dT*dT*dG*dT*dA*dA*dG*kT*kA*kA; antisense) [Compound 958529]
YAP1 (% UTC) [4]: 3 % UTC

1075951 (antisense k[5mC]*kA*k[5mC]*dG*dG*dA*dA*dG*dA*dG*d[5mC]*dT*dT*kG*k[5mC]*kA) [compound 1075951]
YAP1 (% UTC) [5]: 34 % UTC

958584 (k[5mC]*k[5mC]*k[5mC]*dT*dA*dA*dG*d[5mC]*dT*dA*dA*dA*dG*k[5mC]*kT*kA; antisense) [Compound 958584]
YAP1 (% UTC) [4]: 74 % UTC

1074357 (antisense k[5mC]*kG*kA*dG*dG*dG*dA*d[5mC]*dA*d[5mC]*dT*dG*dT*kA*kG*k[5mC]) [compound 1074357]
YAP1 (% UTC) (Table 35, Yap1 mRNA as percent of untreated control, 3-10-3 cEt gapmers targeting SEQ ID NO: 1 and 2, single dose): 12 % UTC

1076076 (kT*kA*kT*d[5mC]*dA*dA*dT*dA*d[5mC]*dT*dT*dT*dA*kG*kT*k[5mC]; antisense) [compound 1076076]
YAP1 (% UTC) [6]: 57 % UTC

1076207 (kA*kG*kT*d[5mC]*dA*dA*dT*dA*dA*dA*d[5mC]*dT*dT*kA*k[5mC]*k[5mC]; antisense) [compound 1076207]
YAP1 (% UTC) [5]: 58 % UTC

1075629 (antisense kG*k[5mC]*k[5mC]*dG*d[5mC]*dA*dA*dA*dA*dT*dA*dT*dT*kA*kA*kT) [compound 1075629]
YAP1 (% UTC) [1]: 100 % UTC

958587 (kG*kG*kT*dG*dA*d[5mC]*dT*dG*dA*dA*dA*d[5mC]*dT*k[5mC]*kT*kA; antisense) [Compound 958587]
YAP1 (% UTC) [2]: 2 % UTC

958729 (antisense kG*kT*k[5mC]*dA*dG*dT*dT*dA*dT*d[5mC]*d[5mC]*dT*dA*kT*k[5mC]*kT) [Compound 958729]
YAP1 (% UTC) [4]: 4 % UTC

958570 (kT*kG*kT*dA*dA*dT*dT*d[5mC]*dA*dT*dA*dT*dA*k[5mC]*k[5mC]*k[5mC]; antisense) [Compound 958570]
YAP1 (% UTC) (Table 13, A-431 cells, 5,000 cells per well, free uptake, 2,000 nM modified oligonucleotide, approx. 48 hours, RTS36584, normalized to RIBOGREEN, Yap1 mRNA relative to untreated control cells): 5 % UTC

1075468 (antisense k[5mC]*kA*k[5mC]*d[5mC]*dA*dA*dT*dA*d[5mC]*dT*dG*dA*dG*kT*kA*kT) [compound 1075468]
YAP1 (% UTC) [6]: 91 % UTC

958453 (antisense kG*k[5mC]*k[5mC]*dT*d[5mC]*dA*dT*dG*dG*dG*d[5mC]*dA*d[5mC]*kG*kG*kT) [Compound 958453]
YAP1 (% UTC) [3]: 70 % UTC

1074543 (k[5mC]*k[5mC]*kT*dA*dG*dG*d[5mC]*dA*d[5mC]*dT*dA*dT*d[5mC]*k[5mC]*kA*k[5mC]; antisense) [compound 1074543]
YAP1 (% UTC) [5]: 57 % UTC
